The values that follow come from patent publication EP0029363A1, “Pyrazole derivatives, process for their preparation and pharmaceutical compositions containing them” (MORISHITA PHARMACEUTICAL CO. LTD., priority 1979, dated 1981).

Data set [1] concerns male SD rats. Description: Pharmacological test against hypertriglyceridemia (fructose-loaded rats, serum lipid analysis). Format: in vivo. To be noted: Rattus norvegicus, rats given aqueous 10% fructose for 2 days, oral, three doses, total dose 300 mg/kg as free carboxylic acid (total dose 300, esters 324-329 mg/kg), blood 48 hours after start. The source says:
Seven groups of male SD rats, each group consisting of 6 animals, were used as test animals and one group consisting of 12 animals was used as a control. The test groups were made hypertriglyceridemic by administering aqueous 10% by weight solution of fructose for 2 days, while the animals of the control group were given tap water. The administration to the test groups of six pyrazole derivatives and of nicotinic acid was as follows:
Each pyrazole derivative and nicotinic acid was separately dissolved or dispersed in an aqueous 1% solution of carboxymethylcellulose (CMC) at a predetermined concentration, and the thus prepared solution or dispersion was orally administered in three doses, each dose having a volume of 0.5 ml/100 g body weight, a first dose just after the commencement of the test, a second dose 24 hours after the first dose, and a third dose 18 hours after the second dose. The total dosage of each compound was such that each animal received 300 mg/kg of each compound as free carboxylic acid. The rats of the control group were given the aqueous l% solution of CMC only, in three doses at the same intervals as the test groups. All the groups were fed with the same diet during the test period.
After 48 hours of the commencement of the test, a blood sample was collected from each animal by amputation of the carotid artery, and serum was separated from the blood sample and frozen to be kept until lipid analysis.
Serum triglyceride was determined by Acetylacetone Method, and the reduction percentage of lipid was calculated on the basis of the following formula: [formula] wherein the reduction percentage is the average for the test animals in each group.
The content of serum cholesterol was determined by an enzymatic method using cholesteroloxidase, and the reduction percentage of cholesterol was calculated according to the following formula: [formula]

Data set [2] concerns male SD rats. Description: Pharmacological test against hypercholesterolemia (high cholesterol diet rats). Format: in vivo. Particulars: high cholesterol diet for 7 days, oral 200 mg/kg/day for 7 consecutive days, blood after 20 hours of fasting; for Reduction Percentage Cholesterol in beta-lipoprotein: beta-lipoprotein-cholesterol (heparin-calcium precipitation); for Reduction Percentage Cholesterol: serum cholesterol. The source says: Three groups of male SD rats each weighing about 150g, each group consisting of five rats, were used as test animals and one group consisting of 10 rats was used as control. All animals were fed a high cholesterol diet consisted of 1% cholesterol, 0.2% sodium cholate, 5% olive oil and commercial diet up to total 100% for 7 days. The test compounds of the present invention and clofibrate, as a medicine for comparison, were respectively dissolved or dispersed in an aqueous 1% solution of CMC so that the volume of the solution or dispersion administered each time to an animal was 0.5 ml/l00g body weight, and the solution or dispersion was orally administered so that the amount of administration each time of each pyrazole derivative or of clofibrate was 200 mg/kg body weight. Administration was carried out once a day for 7 consecutive days. Water was taken ad lib. After 20 hours of fasting from the last administration, a blood sample was taken from each animal by amputation of the carotid artery, and the serum separated was frozen until the analysis of cholesterol shown as follows:
The content of serum cholesterol was determined by the above-mentioned method. The beta-lipoprotein- cholesterol was determined by "heparin-calcium precipitation method". The reduction percentage of cholesterol in serum and beta-lipoprotein were calculated in the same manner as above.

The next data set can be described thus: Acute toxicity, oral. Particulars: mouse, in vivo, male ICR mice, in aqueous 1% CMC, roughly calculated from mortalities at 2.5 and 5.0 g/kg body weight. Here is the method:
The acute toxicity of the present pyrazole derivatives to mammals was determined by the following method.
Male ICR mice of body weight 21 to 25 g were divided into several groups each consisting of 8 animals and were fasted for 17 to 18 hours and then orally given a pyrazole derivative or nicotinic acid dissolved or dispersed in an aqueous 1% CMC solution at a rate of 0.2 ml/10 g body weight. The administered amount of each compound was 2.5 g/kg body weight or 5.0 g/kg, and from the mortalities at both levels, LD50 was roughly calculated and compared with LD50 of nicotinic acid.

The mark [3] stands for this setting: serum cholesterol, read-out: Reduction Percentage Cholesterol.
Setting [4] is: serum triglyceride, read-out: Reduction Percentage Triglyceride.

Like-named read-outs stand apart in the source and are kept apart here.

On to `CCCCCCCCCCCCCc1cc(C(=O)NCC(=O)OCC)n[nH]1` [3-N-ethoxycarbonylmethylcarbamoyl-5-n-tridecylpyrazole], for which the inhibition in vivo at 300 mg/kg in the data set on male SD rats [1] (setting [3]) was 34.8%. Besides, the inhibition in vivo at 300 mg/kg in the data set on male SD rats [1] (setting [4]) amounted to 81.4%. Besides, in the data set with male SD rats [2], the “Reduction Percentage Cholesterol in beta-lipoprotein” value is 32.7 and the “Reduction Percentage Cholesterol” value is listed as 48.6.

Consider `CCCCCCCCCCCCCCCCCc1cc(C(=O)OCC)n[nH]1` [ethyl 5-n-heptadecylpyrazole-3-carboxylate], for which the inhibition in vivo at 300 mg/kg in the data set with male SD rats [1] (setting [3]) came out at 32.9%; in the data set on male SD rats [1] (setting [4]), 35.2%.

Turning to `CCCCCCCCCCCCCc1cc(C(=O)O)n[nH]1` [5-n-tridecylpyrazole-3-carboxylic acid], the inhibition in vivo at 300 mg/kg in the data set on male SD rats [1] (setting [3]) was 59.8%. Also, the inhibition in vivo at 300 mg/kg in the data set on male SD rats [1] (setting [4]) is 76.4%. In the data set on male SD rats [2], the “Reduction Percentage Cholesterol in beta-lipoprotein” value amounted to 54.3 and the “Reduction Percentage Cholesterol” value is 45.2.

On to `CCCCCCCCCCCCCc1cc(CO)n[nH]1` [3-hydroxymethyl-5-n-tridecylpyrazole], for which, in the data set on male SD rats [1] (setting [3]), the inhibition in vivo at 300 mg/kg worked out at 55.8%. Also, the inhibition in vivo at 300 mg/kg in the data set on male SD rats [1] (setting [4]) came to 78.2%. Further, in the data set on male SD rats [2], the “Reduction Percentage Cholesterol in beta-lipoprotein” value is given as 25.2 and the “Reduction Percentage Cholesterol” value turned out to be 52.7.

For `CCCCCCCCCCCCCCCc1cc(C(=O)OCC)n[nH]1` [ethyl 5-n-pentadecylpyrazole-3-carboxylate], the inhibition in vivo at 300 mg/kg is 34.1% with male SD rats [1] (setting [3]) and 67.8% in the data set with male SD rats [1] (setting [4]).

Take `CCCCCCCCCCCCCc1cc(C(=O)O)nn1C` [1-methyl-5-n-tridecylpyrazole-3-carboxylic acid]: the inhibition in vivo at 300 mg/kg in the data set with male SD rats [1] (setting [3]) stood at 61.2%. In the data set on male SD rats [1] (setting [4]), the inhibition in vivo at 300 mg/kg was determined as 75.9%. Also, in the data set with male SD rats [2], the “Reduction Percentage Cholesterol in beta-lipoprotein” value came to 57.3 and the “Reduction Percentage Cholesterol” value was 60.1.

Turning to `CCCCCCCCCCCCCCCc1cc(C(=O)O)n[nH]1` [5-n-pentadecylpyrazole-3-carboxylic acid], the figures for the inhibition in vivo at 300 mg/kg in the data set on male SD rats [1] (setting [3]) and in the data set on male SD rats [1] (setting [4]) were 32.1% and 62.8%, respectively.

`CCCCCCCCCCCCCCCCCc1cc(C(=O)O)n[nH]1` [5-n-heptadecylpyrazole-3-carboxylic acid]: the inhibition in vivo at 300 mg/kg in the data set on male SD rats [1] (setting [3]) was 24.5%; in the data set with male SD rats [1] (setting [4]), 30.5%.

Take `CCCCCCCCCCCCCc1cc(C(=O)OCC)n[nH]1` [ethyl 5-n-tridecylpyrazole-3-carboxylate]: the values for the inhibition in vivo at 300 mg/kg in the data set on male SD rats [1] (setting [3]) and with male SD rats [1] (setting [4]) were 65.1% and 88%, respectively.

What is called LD50 is the dose expected to kill half of the subjects tested. For `O=C(O)c1cccnc1` [Nicotinic acid, reference compound], the inhibition in vivo at 300 mg/kg turned out to be 16.4% in the data set with male SD rats [1] (setting [3]) and 24.1% in the data set with male SD rats [1] (setting [4]). The LD50 in “Acute toxicity, oral” was 4500 mg/kg.
